These results are taken from patent US6656955B2, “Pharmaceutical composition having enhanced antitumor activity and/or reduced side effects, containing an antitumor agent and an hydroximic acid derivative” (priority 1997, dated 2003).

In data set [1] the test system is Sp-2 (mouse myeloma, suspension) cells. The data set is described as follows: Surviving tumor cells in cell culture, trypan blue counting. The class given is cell-based. The settings on record: Sp-2 cells, compound L 40 microgram/ml. As for the experimental part: Experiments with cell culture. Sp-2 (mouse myeloma, suspension) cells were plated on DMEM (Dubelso modified Eagle medium) in the presence of 10% FCS (fetal calf serum). Cells were plated on 96 hole plate with a starting cell number of 10^4/250 μl.
48 hours after treatment, i.e., addition of the above listed compounds, cells in the holes were counted in a method of staining them with 10 microliter of tripaneblue following suspension. Counting was done in B{overscore (u)}rker chamber.
In this case, one portion of cells were plated without the presence of drug, one portion of cells were plated in the presence of 13 microgram/ml fluoroacil, another portion in the presence of 13 microgram/ml fluoroacil+40 microgram/ml compound “L”. Survival rate was examined […] after treatment.

The subject of another data set is P-388 leukemia cells. The data set is described as follows: Survival of mice inoculated with P-388 leukemia. The class given is in vivo, BDF1 mice. The settings on record: for Long term Percent survival / Long term Survivors/Total: day 45. As to the method: (§1) In vivo experiments with mice. Single or repeated treatments started on day 1 following transplantation of P-388 or S-180 tumor The therapeutic effectiveness was evaluated on the basis of survival time and tumor volume. The experiments were terminated after 45 days. Long-term survival of mice were not followed beyond 45 days, but the end point was on day 46 following tumor transplantation. The comparative antitumor effect of various treatment groups on the median survival time in days for treated versus control groups was expressed as T/C.
Treatments started 1 day after the i.p. tumor transplantation.

The subject of data set [2] is Wistar rats. The data set is described as follows: Cardiac function by ECG in cisplatin-treated rats. The class given is in vivo, rat. The settings on record: cisplatin 50 mg/kg daily, compound L 40 mg/kg daily. As for the experimental part:
(§2) In vivo experiments with rats. […] The animals were healthy (without any tumor inoculation) at the beginning of the experiment, and the dose of the antitumor compound was provocatively/unusually high which by itself would cause tissue damage with high probability. […] During treatment, cardiac function of animals was followed by ECG, and after two weeks of treatment enzymatic activity in the blood of animals was determined.
Cardiac function was monitored by AT-6 ECG on all four limbs. QRS, RR, PR and TQ distances and J point depressions were determined.

Data set [3] concerns Wistar rats. The data set is described as follows: Tissue damage: intracellular enzyme release into serum of cisplatin-treated rats. The format is in vivo, rat. Conditions: after two weeks, cisplatin 50 mg/kg daily, compound L 40 mg/kg daily. As for the experimental part:
as §2
Tissue damage was evaluated by measuring intracellular release of enzymes. Enzymatic activity was determined by the method of H. U. Bergmeyer. (Methods in Enzymatic Analysis, 2nd edition, Academic Press (1974)/. The following enzymes were measured:
GOT=glutamate-oxalacetate-transaminase,
GPT=glutamate-piruvate-transaminase,
LDH=lactate dehydrogenase,
LipDH=lipoamide-dehydrogenase,
Enzymatic activity is given in mUnit/m1 serum.

The subject of a further data set is S-180 sarcoma. Description: Tumor growth inhibition, S-180 solid tumor in mice. The format is in vivo. Conditions: single (FIG. 1) or repeated injections (FIG. 2). As for the experimental part:
as §1
In the case of S-180 solid tumor the tumor growth inhibitory effect of compounds was controlled 3 times for a week using digital caliper. Tumor volume was calculated using the following formula: […]
where “a” and “b” are the shortest and the longest diameter, respectively of a given tumor (Tomayko M. M. and Reynolds C. P.: Determination of subcutaneous tumor size in athymic/nude/mice. Cancer Chemother. Pharmacol, 24, p. 148,1989). Mean values (X) and standard deviations (S.D.) were calculated. The statistically significant difference (p) was determined by Student' t test, where appropriate.

The test system of data set [4] is Wistar rats. The data set is described as follows: One month survival after two week treatment of rats. The format is in vivo. The settings on record: cisplatin 50 mg/kg daily, compound L 40 mg/kg daily. As to the method: as §2
It was investigated how many percent of animals were still alive following a two week treatment detailed above.

In a further data set the test system is BDF1 male mice. The data set is described as follows: Acute toxicity (survival) in normal mice. The format is in vivo. Conditions: for Survival % / Survivors/Total: 25 days observation. As to the method: In vivo experiments with mice. […] [c.f. Oncology Report (REP/O.O.I./1988/01)]. First generation hybrid BDF1 (C57B1 female×DBA/2 male) adult male mice, weighing 22-24 g, specified pathogen free (SPF) were used for these experiments. The animals were kept in macrolon cages at 22-24° C. (40-50% humidity), with a lighting regimen of 12/12 h light/dark.
The observation period was terminated after 25 days. Of compound “L” doses, the dose of 750 mg/kg body weight, i.p. was lethal (Table 4).

[5] abbreviates: 48 hours, cisplatin 0.35 microgram/ml.
Setting [6] is: group 10: CisPt 10 mg/kg i.p., 1 qd.
Where [7] appears, read: group 13: CisPt 3 mg/kg i.p., 5 qd.
The mark [8] stands for this setting: 40 hours, fluoroacil 13 microgram/ml.

For `N.N.[Cl][Pt][Cl]` [Cisplatin, cis-diammine-dichloroplatinum], the “Surviving cell (%)” value in data set [1] (setting [5]) was 12 ± 4%. Also, in the data set on P-388 leukemia cells (setting [6]), the T/C % stood at 147.0%, the “Long term Percent survival” value was 29% and the “Long term Survivors/Total” value was 2/7. Besides, in the data set on P-388 leukemia cells (group 10: CisPt 10 mg/kg i.p., 1 qd, non-long-term survivors (5 mice)), the “Mean Survival (days)” value came to 16.6 ± 4.6 day⁻¹. Also, in the data set with P-388 leukemia cells (setting [7]), the T/C % stood at 257.0%, the “Long term Percent survival” value came to 43% and the “Long term Survivors/Total” value is 3/7. Besides, the “Mean Survival (days)” value in the data set with P-388 leukemia cells (group 13: CisPt 3 mg/kg i.p., 5 qd, 4 mice) is 29.0 ± 6.1 day⁻¹. In addition, in the data set on Wistar rats [2], the J point depression was determined as 2.1 ± 0.3 mm, the QRS is listed as 102 ms and the QRS intensity entry is listed as “fluctuating”. For the same molecule, in the data set on Wistar rats [3], the “Enzymatic activity CK (creatine-kinase)” value is given as 9776 mU/ml, the “Enzymatic activity CS (citrate-synthase)” value amounted to 22 mU/ml, the “Enzymatic activity GOT (glutamate-oxalacetate-transaminase)” value is 273 mU/ml and the “Enzymatic activity GPT (glutamate-piruvate-transaminase)” value turned out to be 87 mU/ml. Also, in the data set with Wistar rats [3], the “Enzymatic activity LDH (lactate dehydrogenase)” value amounted to 5136 mU/ml and the “Enzymatic activity LipDH (lipoamide-dehydrogenase)” value is recorded as 69 mU/ml. Moreover, the “Tumor growth inhibitory effect (tumor growth curves, mean tumor volumes)” value in the data set on S-180 sarcoma is on record as “significant inhibitory effect”. The “One month survival (%)” value with Wistar rats [4] is recorded as 25%.

Regarding `O=c1[nH]cc(F)c(=O)[nH]1` [Fluoroacil, 5-fluoro-2,4(1H,3H)pyrimidinedione], the “Surviving cell (%)” value in data set [1] (setting [8]) is 13 ± 3%.

Turning to `Cl.Cl.NC(=NOCC(O)CN1CCCCC1)c1cccnc1` (stereo not drawn) [compound “L”, O-(3-piperidino-2-hydroxyl-1-propyl)niconitic acid amidoxime dihydrochloride], the “Surviving cell (%)” value in data set [1] (setting [8]) and in data set [1] (setting [5]) was 51 ± 8% throughout. Besides, the “Toxicity evaluated on the basis of survival” value in the data set with BDF1 male mice (compound L 750 mg/kg body weight, i.p.) is on record as “lethal”; in the data set on BDF1 male mice (other single compound L treatments (Table 4)) it was “no effect on the survival”. The Survival % was 100% with BDF1 male mice (group 1: 200 mg/kg i.p., 1 qd); 0% with BDF1 male mice (group 2: 750 mg/kg i.p., 1 qd); 100% in the data set on BDF1 male mice (group 3: 2000 mg/kg p.o., 1 qd); 100% with BDF1 male mice (group 4: 100 mg/kg i.p., 5 qd). In addition, the Survivors/Total is listed as 7/7 in the data set on BDF1 male mice (group 1: 200 mg/kg i.p., 1 qd); 0/7 in the data set on BDF1 male mice (group 2: 750 mg/kg i.p., 1 qd); 7/7 in the data set with BDF1 male mice (group 3: 2000 mg/kg p.o., 1 qd); 7/7 in the data set with BDF1 male mice (group 4: 100 mg/kg i.p., 5 qd).
